Experimental data as given in patent US12240830B2, “Fused ring heteroaryl compounds and use thereof” (BiSiChem Co., Ltd., priority 2021, dated 2025).

Target: T1, ALK5 (Homo sapiens, UniProt P36897)
T1 construct: Cells were seeded at 3×10^4/well in 24-well plates were transiently transfected with 500 ng of (CAGA)-12-luciferase reporter construct; endogenous in cells; host or cells: Hs578T (ATCC HTB-22)
T1 sequence (P36897 34-503): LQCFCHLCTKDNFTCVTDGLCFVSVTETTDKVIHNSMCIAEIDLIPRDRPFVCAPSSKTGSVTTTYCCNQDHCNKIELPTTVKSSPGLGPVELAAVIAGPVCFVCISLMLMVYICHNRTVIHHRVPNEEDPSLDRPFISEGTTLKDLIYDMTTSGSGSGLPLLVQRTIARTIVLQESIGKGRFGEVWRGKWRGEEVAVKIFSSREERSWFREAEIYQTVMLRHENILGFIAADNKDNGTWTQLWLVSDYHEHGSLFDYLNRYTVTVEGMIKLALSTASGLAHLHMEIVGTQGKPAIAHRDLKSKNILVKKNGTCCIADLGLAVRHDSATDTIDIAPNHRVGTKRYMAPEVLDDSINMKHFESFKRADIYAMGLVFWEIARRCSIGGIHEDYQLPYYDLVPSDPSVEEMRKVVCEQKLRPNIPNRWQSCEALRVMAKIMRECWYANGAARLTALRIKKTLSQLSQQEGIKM
Assay: Cell-based luciferase reporter assay for ALK5 activity
Conditions: (CAGA)-12-luciferase reporter, cells stimulated with 2 ng/ml recombinant TGF-β1 for 12 hours; Hs578T cells; read-out: Relative luciferase activity: IC50 value
Description: Human cancer cell lines Hs578T (ATCC® HTB-22™) cells were grown in DMEM (Dulbecco's modified Eagle's medium) supplemented with 10% fetal bovine serum and 1% mixture of penicillin and streptomycin (Gibco). Cells were maintained at 37° C. in a humidified 5% CO2− atmosphere.
Cell-Based Luciferase Reporter Assay for ALK5 Activity
Cells were seeded at 3×10^4/well in 24-well plates were transiently transfected with 500 ng of (CAGA)-12-luciferase reporter construct and 5 ng of pRL-TK Renilla luciferase vector (Promega, Madison, WI), an internal control for transfection efficiency, using Lipofectamine 3000 reagent (Thermo Fisher Scientific, Waltham, USA). After 24 h transfection, the cells were pre-treated with ALK5 inhibitor in dose-dependent manner. And then, Cells stimulated with 2 ng/ml recombinant TGF-β1 for 12 hours. After the stimulation, the firefly and Renilla luciferase activities were measured by Dual-Luciferase Reporter Assay (Promega). […]

IC50	SMILES
10 to 100 nM	Cc1cccc(-c2[nH]c(NCc3cccc(F)c3)nc2-c2cnc3[nH]ncc3c2)n1 [Example 38, N-(3-fluorobenzyl)-5-(6-methylpyridin-2-yl)-4-(1H-pyrazolo[3,4-b]pyridin-5-yl)-1H-imidazol-2-amine]
10 to 100 nM	Cc1cccc(-c2[nH]c(NCc3cccc(Cl)c3F)nc2-c2ccc3c(cnn3C(F)F)c2)n1 [Example 27]
> 100 nM	Cc1cccc(-c2[nH]c(NCc3cccc(F)c3)nc2-c2ccc3c(cnn3C(C)(C)CO)c2)n1 [Example 26, 2-(5-(2-((3-fluorobenzyl)amino)-5-(6-methylpyridin-2-yl)-1H-imidazol-4-yl)-1H-indazol-1-yl)-2-methylpropan-1-ol]
10 to 100 nM	Cc1cccc(-c2[nH]c(NCc3ccc(F)c(F)c3)nc2-c2ccc3c(cnn3C(F)F)c2)n1 [Example 29, N-(3,4-difluorobenzyl)-4-(1-(difluoromethyl)-1H-indazol-5-yl)-5-(6-methyl-pyridin-2-yl)-1H-imidazol-2-amine]
< 10 nM	Cc1cccc(-c2[nH]c(NCc3cccc(Cl)c3F)nc2-c2ccc3c(cnn3C)c2)n1 [Example 23, N-(3-chloro-2-fluorobenzyl)-4-(1-methyl-1H-indazol-5-yl)-5-(6-methylpyridin-2-yl)-1H-imidazol-2-amine]
< 10 nM	Cc1ccc(CNc2nc(-c3ccc4c(cnn4C)c3)c(-c3cccc(C)n3)[nH]2)c(F)c1 [Example 18, N-(2-fluoro-4-methylbenzyl)-4-(1-methyl-1H-indazol-5-yl)-5-(6-methylpyridin-2-yl)-1H-imidazol-2-amine]
< 10 nM	Cc1cccc(-c2[nH]c(NCc3cccc(F)c3)nc2-c2cnc3c(cnn3C)c2)n1 [Example 31, N-(3-fluorobenzyl)-4-(1-methyl-1H-pyrazolo[3,4-b]pyridin-5-yl)-5-(6-methyl-pyridin-2-yl)-1H-imidazol-2-amine]
> 100 nM	Cc1cccc(-c2[nH]c(NCc3cccc(F)c3)nc2-c2ccc3c(cnn3S(C)(=O)=O)c2)n1 [Example 22, N-(3-fluorobenzyl)-5-(6-methylpyridin-2-yl)-4-(1-(methylsulfonyl)-1H-indazol-5-yl)-1H-imidazol-2-amine]
< 10 nM	Cc1cccc(-c2[nH]c(NCc3ccc(C)c(F)c3)nc2-c2ccc3c(cnn3C)c2)n1 [Example 19, N-(3-fluoro-4-methylbenzyl)-4-(1-methyl-1H-indazol-5-yl)-5-(6-methyl-pyridine-2-yl)-1H-imidazol-2-amine]
< 10 nM	Cc1cccc(-c2[nH]c(NCc3cccc(F)c3)nc2-c2cc3cnn(C)c3cn2)n1 [Example 33, N-(3-fluorobenzyl)-4-(1-methyl-1H-pyrazolo[3,4-c]pyridin-5-yl)-5-(6-methyl-pyridin-2-yl)-1H-imidazol-2-amine]
10 to 100 nM	Cc1cccc(-c2[nH]c(NCc3ccc(Cl)c(Cl)c3)nc2-c2ccc3c(cnn3C(F)F)c2)n1 [Example 28, N-(3,4-dichlorobenzyl)-4-(1-(difluoromethyl)-1H-indazol-5-yl)-5-(6-methyl-pyridin-2-yl)-1H-imidazol-2-amine]
10 to 100 nM	Cc1cccc(-c2[nH]c(NCc3cccc(C)c3F)nc2-c2ccc3c(cnn3C)c2)n1 [Example 17, N-(2-fluoro-3-methylbenzyl)-4-(1-methyl-1H-indazol-5-yl)-5-(6-methylpyridin-2-yl)-1H-imidazol-2-amine]
> 100 nM	Cc1cccc(-c2[nH]c(NCc3cccc(F)c3)nc2-c2ccc3c(cnn3C)n2)n1 [Example 32, N-(3-fluorobenzyl)-4-(1-methyl-1H-pyrazolo[4,3-b]pyridin-5-yl)-5-(6-methyl-pyridin-2-yl)-1H-imidazol-2-amine]
10 to 100 nM	Cc1cccc(-c2[nH]c(NCc3cccc(F)c3F)nc2-c2ccc3c(cnn3C)c2)n1 [Example 35, N-(2,3-difluorobenzyl)-4-(1-methyl-1H-indazol-5-yl)-5-(6-methylpyridin-2-yl)-1H-imidazol-2-amine]
10 to 100 nM	Cc1cccc(-c2[nH]c(NCc3ccc(F)cc3F)nc2-c2ccc3c(cnn3C)c2)n1 [Example 36, N-(2,4-difluorobenzyl)-4-(1-methyl-1H-indazol-5-yl)-5-(6-methylpyridin-2-yl)-1H-imidazol-2-amine]
